The nature of data set [1]: GLP repeated-administration toxicity study (D1+D8/21 Days) in rats. The class given is in vivo, Sprague-Dawley (SD) rats. Particulars: intravenous bolus on Days 1, 8, 22, 29. The protocol:
Rats developed test article-related, dose-dependent lesions at the injection sites and the distal ends of the tails. At the 10 mg/kg dose, there were mild and reversible changes in hematology and serum biochemistry parameters.

The conditions of data set [2]: cited from earlier work.
In data set [3] the test system is human liver cancer (HepG2-GFP) orthotopic CDX model. Description: Human liver cancer orthotopic CDX efficacy model (QW×2 regimen). The data set is classed as in vivo, nude mice. Particulars: 1.25, 2.5, 5 mg/kg, QW×2, drug free one week, QW×2, I.V.; significant dose-effect relationship. From the text:
The data from this experiment correspond to the data of the HepG2 model in Example 3-1 of the aforementioned Patent Application 2 (see Table 5 and Figures 4A, 4B of this application).

The subject of a further data set is solid tumors. The settings on record: 21 patients of 39; cited from earlier work.
The subject of data set [4] is human lung cancer (H460-GFP) subcutaneous CDX model. Description: Human lung cancer CDX efficacy model (QW×2 regimen). The data set is classed as in vivo, nude mice. Particulars: QW×2, QW×2, I.V., P<0.01. The protocol: Images of tumor burden in mice were non-invasively collected twice a week by a Fluor Vivo Model 100 imaging system, and the mean value of tumor area in each group was calculated based on imaging analysis results. […] The data from this experiment are the data for the H460 model in Example 3-1 of the aforementioned Patent Application 2 (see Table 5 and Figure 5 of this application).

In data set [5] the test system is HuPrime® lung cancer LU5173 subcutaneous xenograft model. From the text:
For the experimental procedures and relevant evaluation indicators of the aforementioned solid tumor animal efficacy models, please refer to Examples 7, 8, and 9 in Patent Application 1, namely PCT/US2016/062114, with Publication No. WO2017/087428 (corresponding to Chinese Application CN201680044608.1, with Publication No. CN108290911B), Examples 3 and 4 in Patent Application 2, namely PCT/CN2021/078115, with Publication No. WO2022178821, and Research Literature 1. The aforementioned non-clinical animal efficacy models (PDX) mentioned in the present application are all similar to those in the aforementioned literatures, and the specific operation procedures thereof are not described herein again.
The LU5173 is a HuPrime® xenograft model established from a lung cancer (small cell lung carcinoma) tumor of a patient.
Efficacy was evaluated based on the relative tumor growth inhibition (TGI, %), and safety was evaluated based on animal body weight changes and mortality.

For data set [6], the system named is HuPrime® liver cancer LI6664 subcutaneous xenograft PDX model. Description: Liver cancer LI6664 subcutaneous xenograft PDX efficacy model. The class given is in vivo, BALB/c nude mice. Particulars: all AST-3424 treatment groups (0.3, 1, 1.25 mg/kg).
Data set [7] in a line: Toxicokinetics (D1+D8/21 Days) in monkeys. The class given is in vivo, cynomolgus monkeys. The settings on record: both sexes, cynomolgus monkey, in vivo, iv.

In the case of `C[C@H](OP(=O)(N1CC1)N1CC1)c1ccc([N+](=O)[O-])c(Oc2cccc(C(=O)N(C)C)c2)c1` [AST-3424], the NOAEL (as a rule, the highest tested level that showed no adverse finding) in data set [1] (Sprague-Dawley, rat, in vivo, read-out: no-observed-adverse-effect level (NOAEL)) is 3 mg/kg. The “dose at which 10% of animals showed severe toxic reactions (STD10)” value in data set [1] is on record as 30 mg/kg. In data set [2] (after intravenous OBI-3424, US patients, parent drug and metabolite), the T1/2 result is reported as “approximately 0.4 hours”. Also, the pharmacokinetic characteristics result in data set [2] (doses ranging from 1 to 14 mg/m^2, minimal accumulation after repeated administration) is recorded as “linear pharmacokinetic characteristics”. In data set [3], the “effect on the orthotopic model of human liver cancer in mice” value is recorded as “strong inhibitory effect”. For the same molecule, in the data set on solid tumors, the “confirmed best response stable disease” value is given as 54%. The TGI in data set [4] (0.625 mg/kg, 1-week off) worked out at 60.2%; in data set [4] (1.25 mg/kg, 1 week off), 67.2%; in data set [4] (2.5 mg/kg, 1 week off), 88%. For the same molecule, the “tolerability (body weight changes and mortality)” value was “well tolerated” in data set [5] (1 mg/kg QD×5, 2 cycles, no animal deaths) and “well tolerated” in data set [6]. For the same molecule, the “TGI (%)” value in data set [5] (day 32 after first administration, AST-3424 1 mg/kg QD×5, 16 days off, QD×5 (P < 0.001), ifosfamide 6.0 mg/kg QD×5/week for 2 weeks (p > 0.05)) was found to be 78.56%. Further, the mean tumor volume in data set [5] (day 32 after first administration, AST-3424 1 mg/kg QD×5, 16 days off, QD×5, ifosfamide 6.0 mg/kg QD×5/week for 2 weeks, vehicle 2276.68) was 503.91 mm^3. Further, the Vd (usually the apparent volume that relates the amount in the body to the concentration in plasma or blood) in data set [7] lay in the range of 0.223 to 0.676 L/kg. In data set [7], the clearance (in general, a measure of how efficiently the substance is removed, as volume per time) was in the range of 11.8 to 18.2 mL/min/kg.

Values taken from patent EP4775209A1 (Ascentawits Pharmaceuticals, Ltd., priority 2023, dated 2025).
